Results reported in US20160045513A1, “ISOXAZOLE COMPOUND FOR THE TREATMENT OF CANCER” (Novartis AG, priority 2007, published 2016).

Tests used:
BXF 1218 = assay: clonogenic assay, human tumor xenografts in vitro; assay type: cell-based; conditions: Bladder, BXF 1218, Transitional cell carcinoma, soft agar, read-out: IC50 (nM), colony formation
Description: (§1) The anticancer activity of 5-(2,4-Dihydroxy-5-isopropyl-phenyl)-4-(4-morpholin-4-ylmethyl-phenyl)-isoxazole-3-carboxylic acid ethylamide is evaluated in 30 human tumor xenografts in vitro using a clonogenic assay. In this assay, human cells derived from cancer patients are evaluated for the capacity of 5-(2,4-Dihydroxy-5-isopropyl-phenyl)-4-(4-morpholin-4-ylmethyl-phenyl)-isoxazole-3-carboxylic acid ethylamide to inhibit the formation of 3 dimensional colonies. […] The tumor xenografts which have never been cultured in cell culture plastic dishes are isolated from nude mice. Tumor cell suspensions are prepared and incubated in 24 well plates containing layers of soft agar. Under these conditions a special subpopulation of cells selectively grows to colonies. 5-(2,4-Dihydroxy-5-isopropyl-phenyl)-4-(4-morpholin-4-ylmethyl-phenyl)-isoxazole-3-carboxylic acid ethylamide was tested in 6 concentrations up to […]. The tumor test panel comprises 1 to 6 models of 10 different human tumor or cancer types, which were bladder cancer, colon, liver, non small cell lung (adeno, squamous epithelium and large cell), small cell lung, mammary, ovary, pancreatic, melanoma and pleuramesothelioma. Antitumor effects are recorded as inhibition of colony formation in relation to untreated controls. Further information on the method has been published (Burger et al., 2004; Fiebig et al., 2004; Smith et al., 2005).
(§2) The cells are continually exposed to 5-(2,4-Dihydroxy-5-isopropyl-phenyl)-4-(4-morpholin-4-ylmethyl-phenyl)-isoxazole-3-carboxylic acid ethylamide and colony formation is determined.

BXF 1228 = assay: clonogenic assay, human tumor xenografts in vitro; assay type: cell-based; conditions: Bladder, BXF 1228, Transitional cell carcinoma, soft agar, read-out: IC50 (nM), colony formation
Description: as §1, §2

CXF 1103 = assay: clonogenic assay, human tumor xenografts in vitro; assay type: cell-based; conditions: CXF1103, Colon, CXF 1103, Adeno carcinoma, soft agar, read-out: IC50 (nM), colony formation
Description: as §1, §2

CXF 158 = assay: clonogenic assay, human tumor xenografts in vitro; assay type: cell-based; conditions: CXF158, Colon, CXF 158, Adeno carcinoma, soft agar, read-out: IC50 (nM), colony formation
Description: as §1, §2

CXF 1784 = assay: clonogenic assay, human tumor xenografts in vitro; assay type: cell-based; conditions: Colon, CXF 1784, Carcinoma, soft agar, read-out: IC50 (nM), colony formation
Description: as §1, §2

LIXF 575 = assay: clonogenic assay, human tumor xenografts in vitro; assay type: cell-based; conditions: Liver, LIXF 575, Hepatocellular carcinoma, soft agar, read-out: IC50 (nM), colony formation
Description: as §1, §2

LXFA 629 = assay: clonogenic assay, human tumor xenografts in vitro; assay type: cell-based; conditions: Lung, non-small cell, LXFA 629, Adeno carcinoma, soft agar, read-out: IC50 (nM), colony formation
Description: as §1, §2

LXFA 983 = assay: clonogenic assay, human tumor xenografts in vitro; assay type: cell-based; conditions: Lung, non-small cell, LXFA 983, Adeno carcinoma, soft agar, read-out: IC50 (nM), colony formation
Description: as §1, §2

LXFE 1422 = assay: clonogenic assay, human tumor xenografts in vitro; assay type: cell-based; conditions: Lung, non-small cell, LXFE 1422, Squamous cell carcinoma, soft agar, read-out: IC50 (nM), colony formation
Description: as §1, §2

LXFL 1647 = assay: clonogenic assay, human tumor xenografts in vitro; assay type: cell-based; conditions: Lung, non-small cell, LXFL 1647, Large cell lung carcinoma, soft agar, read-out: IC50 (nM), colony formation
Description: as §1, §2

MAXF 1322 = assay: clonogenic assay, human tumor xenografts in vitro; assay type: cell-based; conditions: Breast, MAXF 1322, Pap. adeno carcinoma, soft agar, read-out: IC50 (nM), colony formation
Description: as §1, §2

MEXF 1539 = assay: clonogenic assay, human tumor xenografts in vitro; assay type: cell-based; conditions: Melanoma, MEXF 1539, Melanoma, soft agar, read-out: IC50 (nM), colony formation
Description: as §1, §2

MEXF 535 = assay: clonogenic assay, human tumor xenografts in vitro; assay type: cell-based; conditions: Melanoma, MEXF 535, Amelanotic melanoma, soft agar, read-out: IC50 (nM), colony formation
Description: as §1, §2

MEXF 672 = assay: clonogenic assay, human tumor xenografts in vitro; assay type: cell-based; conditions: Melanoma, MEXF 672, Amelanotic melanoma, soft agar, read-out: IC50 (nM), colony formation
Description: as §1, §2

OVXF 1353 = assay: clonogenic assay, human tumor xenografts in vitro; assay type: cell-based; conditions: Ovary, OVXF 1353, Adeno carcinoma, soft agar, read-out: IC50 (nM), colony formation
Description: as §1, §2

OVXF 1544 = assay: clonogenic assay, human tumor xenografts in vitro; assay type: cell-based; conditions: Ovary, OVXF 1544, Carcinoma, soft agar, read-out: IC50 (nM), colony formation
Description: as §1, §2

PXF 1118 = assay: clonogenic assay, human tumor xenografts in vitro; assay type: cell-based; conditions: Pleuramesothelioma, PXF 1118, Biphasic pleuramesothelioma, soft agar, read-out: IC50 (nM), colony formation
Description: as §1, §2

CA20948 xenograft = assay: antitumor effect in the rat pancreatic cancer model CA20948; assay type: in vivo; conditions: for T/C (%) / ΔTumor volume (mm^3): qw; for ΔTumor volume (mm^3): mean ±SEM, *P < 0.05
Description: The transplantable rat pancreatic tumor CA20948 is serially passaged as cell homogenates in male syngeneic Lewis rats. The injection site is subcutaneously on the right flank. […] Tumor growth is monitored at regular intervals. The xenograft tumor sizes is measured manually with calipers and the tumor volume is estimated using the formula: (W×L^2×π/6), where width (W) and height (H) are the two largest diameters. Results are presented as mean ±SEM. Tumor data were analyzed by ANOVA with post hoc Dunnet's test for comparison of treatment versus control group. As a measure of efficacy the % T/C value is calculated at the end of the experiment according to: (Δtumor volumetreated/Δtumor volumecontrol)*100 where Δtumor volumes represent the mean tumor volume on the evaluation day minus the mean tumor volume at the start of the experiment. The antitumor effect of AUY922 is evaluated in the CA20948 xenograft model. Each group consisted of six tumor bearing animals. At the end of the study, the tumor sizes in the treatment groups are compared to those of the vehicle treated groups and the effect is expressed as % T/C.

`CCNC(=O)c1noc(-c2cc(C(C)C)c(O)cc2O)c1-c1ccc(CN2CCOCC2)cc1` [AUY922, 5-(2,4-Dihydroxy-5-isopropyl-phenyl)-4-(4-morpholin-4-ylmethyl-phenyl)-isoxazole-3-carboxylic acid ethylamide] showed an IC50 (BXF 1218) of 27 nM, an IC50 (BXF 1228) of 630 nM and an IC50 (CXF 1103) of 13 nM. The IC50 (CXF 158) was 369 nM, the IC50 (CXF 1784) was 418 nM and the IC50 (LIXF 575) was 34 nM. For the same compound, the IC50 (LXFA 629) was 35 nM, the IC50 (LXFA 983) was 126 nM and the IC50 (LXFE 1422) was 48 nM. The IC50 (LXFL 1647) was 34 nM, the IC50 (MAXF 1322) was 29 nM and the IC50 (MEXF 1539) was 3 nM. It also gave an IC50 (MEXF 535) of 43 nM, an IC50 (MEXF 672) of 18 nM and an IC50 (OVXF 1353) of 26 nM. For the same compound, the IC50 (OVXF 1544) was 53 nM, the IC50 (PXF 1118) was 223 nM and the “T/C (%)” value (CA20948 xenograft; 50 mg/kg, i.v.) was 30%. For the same compound, the “ΔTumor volume (mm^3)” value (CA20948 xenograft; 50 mg/kg, i.v.) was 7090 ± 2553* mm^3, the “T/C (%)” value (CA20948 xenograft; 75 mg/kg, i.v) was 21% and the “ΔTumor volume (mm^3)” value (CA20948 xenograft; 75 mg/kg, i.v) was 4796 ± 1354* mm^3. The “reduction of tumor sizes versus vehicle” value (CA20948 xenograft; once per week at 50 and 75 mg/kg) was “Statistically significant reduction of tumor sizes”.
